The results in this text go back to patent US10849907B2, “Imidazopyridine derivatives and the use thereof as medicament” (Boehringer Ingelheim International GmbH, priority 2017, dated 2020).

The target in one data set is T1, human MDR1 (P-gp) (Homo sapiens, UniProt P08183).
T1 construct: expressed in transfected cells; host or cells: MDCKII (Madin-Darby canine kidney) cells
Nature of the data set: MDCK assay MDR-1 (p-GP): permeability across MDCK-MDR1 monolayers. It counts as in vitro ADME. Conditions: for Papp A→B: MDCK-MDR1 monolayers, apical-to-basal, pH 7.4, 1 or 10 μM; for efflux ratio: pH 7.4, MDCK-MDR1, Papp (b-a) divided by Papp (a-b). On the procedure: (§1) The MDCK assays provide information on the potential of a compound to pass the blood brain barrier. Permeability measurements across polarized, confluent MDCK-MDR1 cell monolayers grown on permeable filter supports are used as an in vitro absorption model: apparent permeability coefficients (PE) of the compounds across the MDCK-MDR1 cell monolayers are measured (pH 7.4, 37° C.) in apical-to-basal (AB) and basal-to-apical (BA) transport direction. The AB permeability (PEAB) represents drug absorption from the blood into the brain and the BA permeability (PEBA) drug efflux from the brain back into the blood via both, passive permeability as well as active transport mechanisms mediated by efflux and uptake transporters that are expressed on the MDCK-MDR1 cells, predominantly by the overexpressed human MDR1. Identical or similar permeabilities in both transport directions indicate passive permeation, vectorial permeability points to additional active transport mechanisms. Higher PEBA than PEAB (PEBA/PEAB >5) indicates the involvement of active efflux mediated by MDR1, which might compromise the goal to achieve sufficient brain exposure. Therefore, this assay provides valuable support for selection of compounds applicable for further in vivo testing. High permeability not limited by efflux at the blood brain barrier is a favourable characteristic for compounds that are to be used for drugs acting primarily in the CNS. Similar concepts are applicable to the MDCK BCRP assay and its interpretation; consequently, to ensure high permeability at the blood brain barrier, it is highly preferred to minimize the efflux (efflux <5) at both MDR1 and BCRP transporters.
Apparent permeability coefficients (Papp) of the compounds across the MDCK-MDR1 monolayers (MDCKII cells transfected with human MDR1 cDNA expression plasmid) are measured in apical-to-basal (AB) and basal-to-apical (BA) direction.
(§2) MDCK-MDR1 cells (6×10^5 cells/cm^2) are seeded on filter inserts (Corning, Transwell, polycarbonate, 0.4 μm pore size) and cultured for 9 to 10 days. Compounds dissolved in DMSO stock solution (1-20 mM) are diluted with HTP-4 aqueous buffer (128.13 mM NaCl, 5.36 mM KCl, 1 mM MgSO4, 1.8 mM CaCl2, 4.17 mM NaHCO3, 1.19 mM Na2HPO4, 0.41 mM NaH2PO4, 15 mM HEPES, 20 mM glucose, pH 7.4) supplemented with 0.25% BSA to prepare the transport solutions (final concentration: 1 or 10 μM, final DMSO <=0.5%). The transport solution is applied to the apical or basolateral donor side for measuring A-B or B-A permeability, respectively. The receiver side contains HTP-4 buffer supplemented with 0.25% BSA. Samples are collected at the start and end of experiment from the donor and at various time intervals for up to 2 hours also from the receiver side for concentration measurement by HPLC-MS/MS. Sampled receiver volumes are replaced with fresh receiver solution. Efflux ratio is calculated dividing the Papp (b-a) values by the Papp (a-b) values.

For the next data set, the target named is T2, human BCRP (Homo sapiens, UniProt Q9UNQ0).
T2 construct: expressed in transfected cells; host or cells: MDCKII (Madin-Darby canine kidney) cells
T2 sequence (Q9UNQ0 1-655): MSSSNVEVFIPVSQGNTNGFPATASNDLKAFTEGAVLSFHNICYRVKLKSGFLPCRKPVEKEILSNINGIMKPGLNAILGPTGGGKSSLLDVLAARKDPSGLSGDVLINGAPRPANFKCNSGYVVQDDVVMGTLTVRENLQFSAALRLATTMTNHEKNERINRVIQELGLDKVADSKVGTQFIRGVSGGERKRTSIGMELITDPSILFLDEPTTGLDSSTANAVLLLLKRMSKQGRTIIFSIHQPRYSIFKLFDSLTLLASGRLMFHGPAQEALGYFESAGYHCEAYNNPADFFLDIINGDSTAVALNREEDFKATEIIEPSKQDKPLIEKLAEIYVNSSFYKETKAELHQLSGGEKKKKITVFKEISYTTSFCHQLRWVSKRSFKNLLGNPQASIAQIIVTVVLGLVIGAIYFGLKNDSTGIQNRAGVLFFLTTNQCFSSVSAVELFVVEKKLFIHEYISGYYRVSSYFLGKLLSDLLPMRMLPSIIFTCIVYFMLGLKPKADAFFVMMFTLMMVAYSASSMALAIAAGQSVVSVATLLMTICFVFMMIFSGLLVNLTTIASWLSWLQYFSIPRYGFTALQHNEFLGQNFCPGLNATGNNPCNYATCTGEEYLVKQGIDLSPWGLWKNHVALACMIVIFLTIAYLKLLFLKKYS
Briefly: MDCK assay BCRP: permeability across MDCK-BCRP monolayers. Type of data set: in vitro ADME. Particulars: for Papp A→B: MDCK-BCRP monolayers, apical-to-basal, pH 7.4, 1 or 10 μM; for efflux ratio: pH 7.4, MDCK-BCRP, Papp (b-a) divided by Papp (a-b). On the procedure: as §1
as §2, with “Apparent permeability coefficients (Papp) of the compounds across the MDCK-BCRP monolayers (MDCKII cells transfected with human BCRP cDNA expression plasmid) are measured in apical-to-basal (AB) and basal-to-apical (BA) direction. MDCK-BCRP” for “MDCK-MDR1”

T1 sequence (P08183 whole entry): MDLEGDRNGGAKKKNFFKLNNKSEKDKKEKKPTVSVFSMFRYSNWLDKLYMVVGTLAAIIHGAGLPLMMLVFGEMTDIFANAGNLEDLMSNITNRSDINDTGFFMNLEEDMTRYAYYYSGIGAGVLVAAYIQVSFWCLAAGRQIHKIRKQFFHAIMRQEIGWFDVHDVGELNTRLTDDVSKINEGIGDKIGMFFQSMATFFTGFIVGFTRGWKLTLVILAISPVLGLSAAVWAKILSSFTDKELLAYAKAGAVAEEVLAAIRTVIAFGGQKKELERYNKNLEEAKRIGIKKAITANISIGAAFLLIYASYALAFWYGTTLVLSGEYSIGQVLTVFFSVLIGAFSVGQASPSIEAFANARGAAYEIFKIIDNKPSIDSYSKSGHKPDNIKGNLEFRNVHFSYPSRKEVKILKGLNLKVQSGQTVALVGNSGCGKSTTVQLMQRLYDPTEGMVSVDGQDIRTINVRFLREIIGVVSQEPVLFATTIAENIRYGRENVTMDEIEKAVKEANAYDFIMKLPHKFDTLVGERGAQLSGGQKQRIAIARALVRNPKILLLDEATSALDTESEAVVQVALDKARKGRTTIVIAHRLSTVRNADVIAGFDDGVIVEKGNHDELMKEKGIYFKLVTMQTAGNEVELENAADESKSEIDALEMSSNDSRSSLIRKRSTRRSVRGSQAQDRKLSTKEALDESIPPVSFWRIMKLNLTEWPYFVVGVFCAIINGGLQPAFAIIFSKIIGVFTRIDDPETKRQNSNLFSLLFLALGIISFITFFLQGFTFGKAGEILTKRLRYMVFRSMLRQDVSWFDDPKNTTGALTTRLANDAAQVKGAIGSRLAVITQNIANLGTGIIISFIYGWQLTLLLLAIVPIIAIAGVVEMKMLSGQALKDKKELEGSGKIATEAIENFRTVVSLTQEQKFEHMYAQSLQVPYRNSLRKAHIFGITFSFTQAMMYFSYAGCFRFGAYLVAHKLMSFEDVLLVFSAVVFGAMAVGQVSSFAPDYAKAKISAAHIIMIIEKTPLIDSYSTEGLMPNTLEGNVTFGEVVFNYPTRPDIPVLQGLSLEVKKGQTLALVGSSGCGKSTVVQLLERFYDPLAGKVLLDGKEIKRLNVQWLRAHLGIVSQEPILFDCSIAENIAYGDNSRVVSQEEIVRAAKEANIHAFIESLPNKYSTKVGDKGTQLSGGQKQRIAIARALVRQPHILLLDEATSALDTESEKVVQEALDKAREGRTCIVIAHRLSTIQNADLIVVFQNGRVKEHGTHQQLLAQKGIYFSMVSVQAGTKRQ

In the case of `O=C(OCc1cccc(F)c1)N1CCO[C@H](c2nc3cccnc3[nH]2)C1` [Example 1], at human MDR1 (P-gp), the Papp A→B – broadly, the apparent permeability from the apical to the basolateral side of a cell layer – worked out at 610 nm/s and the efflux ratio (in general, the permeability from basolateral to apical divided by that in the opposite direction, in the common usage) worked out at 0.9. Further, on human BCRP, the apical-to-basolateral permeability (Papp A→B) is 380 nm/s and the efflux ratio was determined as 2.4.

Regarding `O=C(OCc1ccc(F)cc1)N1CCO[C@H](c2nc3cccnc3[nH]2)C1` [Example 2], on human MDR1 (P-gp), the Papp A→B turned out to be 315 nm/s and the efflux ratio stood at 1.7. Besides, at human BCRP, the apical-to-basolateral permeability (Papp A→B) worked out at 340 nm/s and the efflux ratio is 2.9.

As to `Cc1ccccc1COC(=O)N1CCO[C@H](c2nc3cccnc3[nH]2)C1` [Example 8], the apparent permeability from apical to basolateral (Papp A→B) on human MDR1 (P-gp) stood at 390 nm/s; at human BCRP, 460 nm/s. For the same molecule, the efflux ratio at human MDR1 (P-gp) stood at 1.6; on human BCRP it was 1.8.

`Cc1cccc(F)c1COC(=O)N1CCO[C@H](c2nc3cccnc3[nH]2)C1` [Example 10]: on human MDR1 (P-gp), the Papp A→B worked out at 370 nm/s and the efflux ratio is 1.6. At human BCRP, the Papp A→B is 400 nm/s and the efflux ratio is 2.2.

`Cc1ccc(COC(=O)N2CCO[C@H](c3nc4cccnc4[nH]3)C2)c(F)c1` [Example 11]: the apparent permeability from apical to basolateral (Papp A→B) on human MDR1 (P-gp) was found to be 320 nm/s; at human BCRP, 630 nm/s. Further, the values for the efflux ratio on human MDR1 (P-gp) and at human BCRP were 1.4 and 1, respectively.

In the case of `Cc1ccc(COC(=O)N2CCO[C@H](c3nc4cccnc4[nH]3)C2)cc1F` [Example 12], at human MDR1 (P-gp), the Papp A→B was determined as 460 nm/s and the efflux ratio came to 0.9. For the same molecule, at human BCRP, the Papp A→B was found to be 690 nm/s and the efflux ratio worked out at 1.

On to `O=C(OCc1ccc(F)cc1Cl)N1CCO[C@H](c2nc3cccnc3[nH]2)C1` [Example 13], for which the Papp A→B on human MDR1 (P-gp) came out at 350 nm/s; at human BCRP, 720 nm/s. For the same molecule, the efflux ratio came to 1.3 on human MDR1 (P-gp) and 0.9 at human BCRP.

On to `O=C(OCc1ccccc1Cl)N1CCO[C@H](c2nc3cccnc3[nH]2)C1` [Example 14], for which, at human MDR1 (P-gp), the Papp A→B turned out to be 380 nm/s and the efflux ratio came out at 1.1. At human BCRP, the Papp A→B is 680 nm/s and the efflux ratio came out at 1.2.

Regarding `O=C(OCc1cccc(F)c1F)N1CCO[C@H](c2nc3cccnc3[nH]2)C1` [Example 15], the apparent permeability from apical to basolateral (Papp A→B) is 590 nm/s at human MDR1 (P-gp) and 330 nm/s on human BCRP. Moreover, the efflux ratio worked out at 1.2 on human MDR1 (P-gp) and 2.8 at human BCRP.

In the case of `O=C(OCc1c(F)cccc1F)N1CCO[C@H](c2nc3cccnc3[nH]2)C1` [Example 16], on human MDR1 (P-gp), the Papp A→B stood at 410 nm/s and the efflux ratio stood at 1.2. For the same molecule, on human BCRP, the apparent permeability from apical to basolateral (Papp A→B) was determined as 490 nm/s and the efflux ratio amounted to 2.1.

Take `O=C(OCc1ccccc1)N1CCO[C@H](c2nc3cccnc3[nH]2)C1` [Example 17]: the Papp A→B worked out at 400 nm/s on human MDR1 (P-gp) and 370 nm/s on human BCRP. For the same molecule, the efflux ratio on human MDR1 (P-gp) was found to be 1.3; on human BCRP it was 2.5.

As for `Cc1ccc(COC(=O)N2CCO[C@H](c3nc4cccnc4[nH]3)C2)cc1` [Example 18], on human MDR1 (P-gp), the Papp A→B was determined as 370 nm/s and the efflux ratio is 1.3. At human BCRP, the Papp A→B is 530 nm/s and the efflux ratio worked out at 1.2.

For the molecule `O=C(OCc1ccc(F)cc1F)N1CCO[C@H](c2nc3cccnc3[nH]2)C1` [Example 19], the figures for the Papp A→B at human MDR1 (P-gp) and on human BCRP were 420 nm/s and 610 nm/s, respectively. Also, the efflux ratio at human MDR1 (P-gp) and on human BCRP was 1.6 each time.

On to `O=C(OCc1ccc(C(F)F)cc1)N1CCO[C@H](c2nc3cccnc3[nH]2)C1` [Example 26], for which, at human MDR1 (P-gp), the Papp A→B was 320 nm/s and the efflux ratio turned out to be 2. Moreover, on human BCRP, the Papp A→B was 240 nm/s and the efflux ratio is 2.7.

With `O=C(OCc1ccccc1F)N1CCO[C@H](c2nc3cccnc3[nH]2)C1` [Example 27], the Papp A→B was 650 nm/s on human MDR1 (P-gp) and 240 nm/s at human BCRP. In addition, the efflux ratio turned out to be 1.2 on human MDR1 (P-gp) and 5.2 at human BCRP.

On to `O=C(OCc1ccc(Cl)cc1)N1CCO[C@H](c2nc3cccnc3[nH]2)C1` [Example 28], for which the Papp A→B is 420 nm/s on human MDR1 (P-gp) and 560 nm/s at human BCRP. In addition, the values for the efflux ratio on human MDR1 (P-gp) and on human BCRP were 1.1 and 1.2, respectively.

Take `Cc1ccc(COC(=O)N2CCO[C@H](c3nc4cc(F)cnc4[nH]3)C2)cc1` [Example 31]: the Papp A→B is 180 nm/s at human MDR1 (P-gp) and 850 nm/s on human BCRP. Moreover, the efflux ratio worked out at 1.8 at human MDR1 (P-gp) and 0.7 on human BCRP.
